Measured values published in ChEMBL document CHEMBL1201862, “PubChem BioAssay data set” (2004).
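96-well plates; 48 h exposure; 5 concentrations. Endpoints by linear interpolation between flanking doses. Not reached: highest tested concentration assigned. GI50 marks 50% less growth.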 Activity calls are given as the source filed them. Cut-off read from the data, not from the text of the source: active = GI50 up to about 1.1 µM and inactive = higher.

Assays:
Assay in all cases: growth of human tumour cells (NCI), 48 h
786-0 = system: 786-0
A549 = system: A549
COLO 205 = system: COLO 205
DLD-1 = system: DLD-1
HCT-116 = system: HCT-116
HT-29 = system: HT-29
IGROV-1 = system: IGROV-1
MOLT-4 = system: MOLT-4
RXF 393 = system: RXF 393
SF-295 = system: SF-295
SW-620 = system: SW-620
U-251 = system: U-251
UACC-257 = system: UACC-257
A498 = system: A498
NCI-H226 = system: NCI-H226
OVCAR-4 = system: OVCAR-4
SNB-19 = system: SNB-19
MCF7 = system: MCF7
MDA-MB-435 = system: MDA-MB-435
NCI/ADR-RES = system: NCI/ADR-RES

Row | Structure (SMILES) | GI50 (786-0) | GI50 (A549) | GI50 (COLO 205) | GI50 (DLD-1) | GI50 (HCT-116) | GI50 (HT-29) | GI50 (IGROV-1) | GI50 (MOLT-4) | GI50 (RXF 393) | GI50 (SF-295) | GI50 (SW-620) | GI50 (U-251) | GI50 (UACC-257) | GI50 (A498) | GI50 (NCI-H226) | GI50 (OVCAR-4) | GI50 (SNB-19) | GI50 (MCF7) | GI50 (MDA-MB-435) | GI50 (NCI/ADR-RES)
1 | O=C(Nc1cc(Cl)ccc1Cl)c1cc2ccccc2oc1=O | 51.8 µM (inactive) | > 100 µM (inactive) | > 100 µM (inactive) | > 100 µM (inactive) | > 100 µM (inactive) | > 100 µM (inactive) | > 100 µM (inactive) | 94.8 µM (inactive) | 37.2 µM (inactive) | 43.3 µM (inactive) | > 100 µM (inactive) | 59.3 µM (inactive) | 97.3 µM (inactive) |  |  |  |  |  |  | 
2 | CC(C)C(Sc1nc(-c2ccccc2)c(-c2ccccc2)[nH]1)C(=O)N/N=C/c1ccc(Cl)cc1 (centres undefined) | 21.6 µM (inactive) | 30.8 µM (inactive) | 17.7 µM (inactive) | 36.1 µM (inactive) | 15.8 µM (inactive) | 14.9 µM (inactive) | 24 µM (inactive) | 0.0382 µM (active) |  | 22.8 µM (inactive) | 26.2 µM (inactive) | 21.7 µM (inactive) | 21 µM (inactive) | 22 µM (inactive) | 17.2 µM (inactive) | 27.7 µM (inactive) | 36.9 µM (inactive) |  |  | 
3 | CCC1(c2c(F)c(F)c(N)c(F)c2F)CCC(=O)NC1=O (centres undefined) | > 100 µM (inactive) | > 100 µM (inactive) | > 100 µM (inactive) | > 100 µM (inactive) | > 100 µM (inactive) | > 100 µM (inactive) | > 100 µM (inactive) | > 100 µM (inactive) |  | > 100 µM (inactive) | > 100 µM (inactive) | > 100 µM (inactive) | > 100 µM (inactive) | > 100 µM (inactive) | > 100 µM (inactive) | > 100 µM (inactive) | > 100 µM (inactive) |  |  | 
4 | CO/S(=N/S(=O)(=O)c1ccccc1)c1ccccc1[N+](=O)[O-] (centres undefined) | > 100 µM (inactive) | > 100 µM (inactive) | > 100 µM (inactive) | > 100 µM (inactive) |  | > 100 µM (inactive) | > 100 µM (inactive) | > 100 µM (inactive) |  | > 100 µM (inactive) | > 100 µM (inactive) | > 100 µM (inactive) | > 100 µM (inactive) |  | > 100 µM (inactive) | > 100 µM (inactive) | > 100 µM (inactive) |  |  | 
5 | O=C1C(=O)N(c2ccc(Cl)c(Cl)c2)C(=O)C(=O)C1c1nc2ccccc2o1 | > 100 µM (inactive) | > 100 µM (inactive) | 47.2 µM (inactive) | 59.2 µM (inactive) | 34.1 µM (inactive) | 41.6 µM (inactive) | > 100 µM (inactive) | 31.7 µM (inactive) |  | > 100 µM (inactive) | 56.5 µM (inactive) | 33.3 µM (inactive) | 98.4 µM (inactive) |  | > 100 µM (inactive) | 95.7 µM (inactive) | 72.9 µM (inactive) |  |  | 
6 | O=C(CCC(=O)Nc1ccc(Cl)c(Cl)c1)CC(=O)c1ccc(Cl)cc1 | > 100 µM (inactive) | > 100 µM (inactive) | > 100 µM (inactive) | > 100 µM (inactive) | > 100 µM (inactive) | > 100 µM (inactive) | > 100 µM (inactive) | > 100 µM (inactive) |  | > 100 µM (inactive) | > 100 µM (inactive) | > 100 µM (inactive) | > 100 µM (inactive) | > 100 µM (inactive) | > 100 µM (inactive) | > 100 µM (inactive) | > 100 µM (inactive) |  |  | 
7 | O=c1[nH]c(=O)n(C2CC(O)C(CO)O2)cc1COCC(F)(F)F (centres undefined) | > 100 µM (inactive) | > 100 µM (inactive) | > 100 µM (inactive) | > 100 µM (inactive) |  | > 100 µM (inactive) | > 100 µM (inactive) | > 100 µM (inactive) | > 100 µM (inactive) | > 100 µM (inactive) | > 100 µM (inactive) | > 100 µM (inactive) | > 100 µM (inactive) | > 100 µM (inactive) |  | > 100 µM (inactive) | > 100 µM (inactive) |  |  | 
8 | c1ccc(SCCCC(Sc2ccccc2)Sc2ccccc2)cc1 | > 100 µM (inactive) | > 100 µM (inactive) | > 100 µM (inactive) | > 100 µM (inactive) | > 100 µM (inactive) |  | > 100 µM (inactive) | > 100 µM (inactive) | > 100 µM (inactive) | > 100 µM (inactive) | > 100 µM (inactive) | > 100 µM (inactive) | > 100 µM (inactive) | > 100 µM (inactive) |  | > 100 µM (inactive) | > 100 µM (inactive) |  |  | 
9 | O=C1OCC2OC(=O)c3cc(O)c(O)c(O)c3-c3c(O)c(O)c(O)c4c3C(=O)OC(C2OC(=O)c2cc(O)c(O)c(O)c2-c2c1cc(O)c(O)c2O)C1OC(=O)c2c-4c(O)c(O)c(O)c2[C@@H]1C(O)C(O)C(O)C(O)CO (some centres undefined) | 17.4 µM (inactive) | 16.4 µM (inactive) | 15.7 µM (inactive) |  | 16.2 µM (inactive) | 14.4 µM (inactive) | 20 µM (inactive) | 20.4 µM (inactive) | 19.3 µM (inactive) | 20.1 µM (inactive) | 19.5 µM (inactive) | 20.4 µM (inactive) | 19.4 µM (inactive) | 26.4 µM (inactive) | 17.6 µM (inactive) | 16.6 µM (inactive) | 46 µM (inactive) | 3.82 µM (inactive) | 4.42 µM (inactive) | 22.2 µM (inactive)
10 | On1c(-c2ccccc2)nc2ccccc2c1=S | 3.95 µM (inactive) | 2.84 µM (inactive) | 3.12 µM (inactive) |  | 2.7 µM (inactive) | 6.64 µM (inactive) | 0.493 µM (active) | 2.04 µM (inactive) | 25.5 µM (inactive) | 2.7 µM (inactive) | 6.82 µM (inactive) | 4.95 µM (inactive) | 54.3 µM (inactive) | 42.2 µM (inactive) | 9.16 µM (inactive) | 2.22 µM (inactive) | 12.3 µM (inactive) | 6.9 µM (inactive) | 7.43 µM (inactive) | 4.2 µM (inactive)
11 | COc1c2c(cc3c1OCO3)[C@]13C=C[C@H](OC)C[C@H]1N(C2)CC3O (some centres undefined) | > 100 µM (inactive) | > 100 µM (inactive) | > 100 µM (inactive) |  | > 100 µM (inactive) | > 100 µM (inactive) | > 100 µM (inactive) | 99.1 µM (inactive) | > 100 µM (inactive) | > 100 µM (inactive) | > 100 µM (inactive) | > 100 µM (inactive) | > 100 µM (inactive) | > 100 µM (inactive) | > 100 µM (inactive) | > 100 µM (inactive) | > 100 µM (inactive) | > 100 µM (inactive) | > 100 µM (inactive) | > 100 µM (inactive)
12 | Cc1ccc(S(=O)(=O)N2CCCSCCN(S(=O)(=O)c3ccc(C)cc3)CCCSCC2)cc1 | > 100 µM (inactive) | > 100 µM (inactive) | > 100 µM (inactive) |  | > 100 µM (inactive) | > 100 µM (inactive) | > 100 µM (inactive) | > 100 µM (inactive) | > 100 µM (inactive) | > 100 µM (inactive) | > 100 µM (inactive) | > 100 µM (inactive) | > 100 µM (inactive) | > 100 µM (inactive) | > 100 µM (inactive) | > 100 µM (inactive) | > 100 µM (inactive) | > 100 µM (inactive) | > 100 µM (inactive) | > 100 µM (inactive)
13 | CS(=O)(=O)c1ccc(/C=N/NC(N)=S)cc1 | > 100 µM (inactive) | > 100 µM (inactive) | > 100 µM (inactive) |  | > 100 µM (inactive) | > 100 µM (inactive) | > 100 µM (inactive) | > 100 µM (inactive) | > 100 µM (inactive) | > 100 µM (inactive) | > 100 µM (inactive) | > 100 µM (inactive) | > 100 µM (inactive) | > 100 µM (inactive) | > 100 µM (inactive) | > 100 µM (inactive) | > 100 µM (inactive) | > 100 µM (inactive) | > 100 µM (inactive) | > 100 µM (inactive)
14 | OCCN1CCN(c2nc(N3CCCC3)c3nc(Cl)c(NCc4ccccc4)nc3n2)CC1 | 1.95 µM (inactive) | 6.59 µM (inactive) | 2.47 µM (inactive) |  | 5.6 µM (inactive) | 3.18 µM (inactive) | 8.43 µM (inactive) | 3.19 µM (inactive) | 1.32 µM (inactive) | 5.53 µM (inactive) | 3.78 µM (inactive) | 5.65 µM (inactive) | 5.15 µM (inactive) | 12.5 µM (inactive) | 17.6 µM (inactive) | 11.2 µM (inactive) | 7.62 µM (inactive) | 4.31 µM (inactive) | 3.98 µM (inactive) | 10.9 µM (inactive)
15 | Cc1ccc2c(O)cc(-c3cccs3)nc2n1 | 15.1 µM (inactive) | 9.79 µM (inactive) | 6.98 µM (inactive) |  | 4.81 µM (inactive) | 16.2 µM (inactive) | 4.86 µM (inactive) | 9.64 µM (inactive) | 18.1 µM (inactive) | 17 µM (inactive) | 3.07 µM (inactive) | 12.1 µM (inactive) | > 100 µM (inactive) | > 54.8 µM (inactive) | 8.91 µM (inactive) | > 90.6 µM (inactive) | 11.7 µM (inactive) | 3.86 µM (inactive) | 1.58 µM (inactive) | 2.9 µM (inactive)
16 | C#CCOCn1cnc2c(N)ncnc21 | > 100 µM (inactive) | > 100 µM (inactive) | > 100 µM (inactive) | > 100 µM (inactive) | > 100 µM (inactive) | > 100 µM (inactive) | > 100 µM (inactive) | > 100 µM (inactive) |  | > 100 µM (inactive) | > 100 µM (inactive) | > 100 µM (inactive) | > 100 µM (inactive) | > 100 µM (inactive) | > 100 µM (inactive) | > 100 µM (inactive) | > 100 µM (inactive) |  |  | 
